Literature values, collected in PubChem BioAssay AID1259409 (Chemical Carcinogenesis Research Information System (CCRIS), 2018).

Test system: rodent chemically induced tumor inhibition, incidence and multiplicity
Test: CCRIS tumor inhibitor studies
Details: Carcinogen: AZOXYMETHANE; 25843-45-2; Dose [Inhibitor]: 0; 300 UMOL/KG IN 0.9% SALINE 1/2 D FOR THE DURATION OF STUDY (STUDY DURATION: 40 WK); Route [Inhibitor]: INTRAPERITONEAL; Species: RAT; Strain/Sex: WISTAR/MALE; Target Tissue: Type of Lesion: COLON: TUMOR; Dose [Carcinogen]: 7.4 MG/KG IN 0.9% SALINE 1/WK FOR 10 WK; Promoter: NONE USED

## NCCCCN
  tumour outcome (control, treated, inhibition, significance): 16/20 (80%), 6/18 (33%), 59%, p<0.01
